In PubChem BioAssay (NCI) one finds TGI and GI50 data, which are given here for nine compounds.

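Values below derive from 48-hour exposures of cells grown in 96-well plates, with endpoints linearly interpolated between the two concentrations bracketing the appropriate inhibition level. GI50: concentration for 50% inhibition of growth. At the TGI there is no net growth.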 A value given as a limit tells only on which side of the number the result lay.

Some test systems named below: UACC-257 melanoma; COLO 205 colon; NCI/ADR-RES ovarian; SK-MEL-28 melanoma; 786-0 renal; UO-31 renal; HL-60(TB) leukemia; OVCAR-4 ovarian; SF-295 CNS; NCI-H23 lung.
Assay in all cases: NCI-60 cell line screen, 48 h

As to `Cc1ncc(CN=Cc2ccc(Cl)cc2)c(N)n1`, the TGI in the test with UACC-257 melanoma, with COLO 205 colon, in the test with NCI/ADR-RES ovarian, in the test on SK-MEL-28 melanoma, with 786-0 renal and with UO-31 renal was greater than 100 µM each time. The TGI in the test on HL-60(TB) leukemia, with OVCAR-4 ovarian, with SF-295 CNS and in the test on NCI-H23 lung was greater than 100 µM throughout.
As to `O=C(NNc1nc(Cl)nc(N2CCN(C(c3ccccc3)c3ccccc3)CC2)n1)c1ccccc1`, the GI50 with UACC-257 melanoma is 2.06 µM; with COLO 205 colon it was 2.04 µM; in the test on NCI/ADR-RES ovarian, 2.08 µM; with SK-MEL-28 melanoma it was 1.75 µM; in the test with 786-0 renal, 2.21 µM; with UO-31 renal it was 2.54 µM. Further, the GI50 with HL-60(TB) leukemia is 2.15 µM; with OVCAR-4 ovarian, 1.68 µM; in the test on SF-295 CNS it was 10.8 µM; with NCI-H23 lung, 1.83 µM. Besides, the TGI was found to be 4.67 µM in the test with UACC-257 melanoma; 4.64 µM in the test on COLO 205 colon; 4.41 µM with NCI/ADR-RES ovarian; 3.25 µM with SK-MEL-28 melanoma; 4.84 µM in the test on 786-0 renal; 17.2 µM in the test on UO-31 renal. The TGI amounted to 6.26 µM in the test with HL-60(TB) leukemia, 3.14 µM with OVCAR-4 ovarian, 23.1 µM in the test on SF-295 CNS and 3.64 µM in the test on NCI-H23 lung.
Consider `O=P(O)(CCP(=O)(O)c1ccccc1)c1ccccc1`, for which the TGI in the test with UACC-257 melanoma, in the test with COLO 205 colon, in the test on NCI/ADR-RES ovarian, in the test with SK-MEL-28 melanoma, in the test with 786-0 renal and with UO-31 renal was greater than 100 µM throughout. Besides, the TGI in the test on HL-60(TB) leukemia, in the test on OVCAR-4 ovarian, with SF-295 CNS and in the test with NCI-H23 lung was greater than 100 µM each time.
With `CN(C)c1cccc2c(S(=O)(=O)N[C@H]3CC[C@H]4[C@@H]5CCc6cc(O)ccc6[C@H]5CC[C@]34C)cccc12`, the GI50 was 2.51 µM in the test with UACC-257 melanoma; 2.74 µM in the test on NCI/ADR-RES ovarian; 2.2 µM in the test on SK-MEL-28 melanoma; 3.18 µM in the test on 786-0 renal; 2.02 µM in the test on UO-31 renal; 2.78 µM in the test on HL-60(TB) leukemia. In addition, the GI50 in the test with OVCAR-4 ovarian was 2.8 µM; in the test on SF-295 CNS, 1.02 µM; with NCI-H23 lung it was 2.99 µM. The TGI in the test with UACC-257 melanoma is 11.5 µM; with NCI/ADR-RES ovarian, 9.9 µM; with SK-MEL-28 melanoma, 5.89 µM; in the test on 786-0 renal it was 9.78 µM; in the test on UO-31 renal, 7.51 µM; with HL-60(TB) leukemia it was 8.23 µM. The figures for the TGI in the test with OVCAR-4 ovarian, in the test on SF-295 CNS and with NCI-H23 lung were 13.8 µM, 2.7 µM and 22 µM, respectively.
Turning to `COc1ccc(-c2nc3sc(C)cn3c2/C=C/C(=O)c2cc(OC)c(OC)c(OC)c2)cc1`, the GI50 is 2.49 µM in the test on UACC-257 melanoma; 4.7 µM in the test on COLO 205 colon; 2.8 µM with NCI/ADR-RES ovarian; 5.31 µM in the test with 786-0 renal; 2.27 µM with UO-31 renal; 2.49 µM in the test on HL-60(TB) leukemia. In addition, the GI50 in the test on OVCAR-4 ovarian is 3.15 µM; with SF-295 CNS, 4.42 µM. Moreover, the TGI was 6.37 µM in the test on UACC-257 melanoma; greater than 100 µM with COLO 205 colon; 8.11 µM in the test on NCI/ADR-RES ovarian; greater than 100 µM with 786-0 renal; 7.61 µM with UO-31 renal; 7.48 µM in the test on HL-60(TB) leukemia. Also, the TGI in the test with OVCAR-4 ovarian and with SF-295 CNS was greater than 100 µM in each case.
In the case of `CCC[CH2][Sn-]([CH2]CCC)([CH2]CCC)[O]c1cc(Cl)c(Cl)cc1Cl`, the GI50 in the test with COLO 205 colon is 0.191 µM; in the test on NCI/ADR-RES ovarian, 0.163 µM; in the test with SK-MEL-28 melanoma, 0.167 µM; in the test with 786-0 renal, 0.163 µM; in the test on HL-60(TB) leukemia, 0.0184 µM; with OVCAR-4 ovarian, 0.148 µM. Further, the GI50 is 0.263 µM with SF-295 CNS and 0.23 µM in the test with NCI-H23 lung. Further, the TGI was determined as 0.4 µM with COLO 205 colon; 0.385 µM in the test with NCI/ADR-RES ovarian; 0.365 µM in the test on SK-MEL-28 melanoma; 0.318 µM in the test with 786-0 renal; 0.167 µM with HL-60(TB) leukemia; 0.398 µM in the test with OVCAR-4 ovarian. Besides, the TGI with SF-295 CNS was determined as 0.732 µM; in the test on NCI-H23 lung, 1.17 µM.
`COc1ccc(N=C2CSc3nnc(-c4cc(F)c(Cl)cc4Cl)n3N2)cc1`: the GI50 with UACC-257 melanoma was 1.38 µM; in the test on COLO 205 colon, 1.81 µM; in the test with NCI/ADR-RES ovarian it was 2.96 µM; with SK-MEL-28 melanoma it was 2.38 µM; in the test on 786-0 renal, 1.04 µM; with HL-60(TB) leukemia, 0.331 µM. Further, the GI50 with OVCAR-4 ovarian was 1.82 µM; with SF-295 CNS, 0.347 µM; in the test with NCI-H23 lung, 2.24 µM. Also, the TGI in the test on UACC-257 melanoma was 4.16 µM; with COLO 205 colon it was 16 µM; in the test on NCI/ADR-RES ovarian, greater than 100 µM; in the test on SK-MEL-28 melanoma it was 21.4 µM; in the test with 786-0 renal it was 4 µM; with HL-60(TB) leukemia it was 0.636 µM. In addition, the TGI came out at 7.04 µM with OVCAR-4 ovarian, 2.08 µM in the test with SF-295 CNS and 15.9 µM in the test on NCI-H23 lung.
Consider `COC(=O)N[C@H]1CCc2c(Br)c(OC)c(OC)c(OC)c2-c2ccc(SC)c(=O)cc21`, for which the GI50 is 11.4 µM with UACC-257 melanoma; 0.0179 µM in the test with NCI/ADR-RES ovarian; 6.99 µM in the test on SK-MEL-28 melanoma; less than 0.0163 µM in the test with 786-0 renal; less than 0.0281 µM with UO-31 renal; less than 0.01 µM in the test with HL-60(TB) leukemia. In addition, the results for the GI50 with OVCAR-4 ovarian and in the test on NCI-H23 lung were 0.152 µM and less than 0.01 µM, respectively. Moreover, the TGI in the test on UACC-257 melanoma is 61.2 µM; with SK-MEL-28 melanoma, 25.1 µM; with 786-0 renal, 24.8 µM; in the test with UO-31 renal, 19 µM; with HL-60(TB) leukemia it was less than 0.01 µM; in the test on OVCAR-4 ovarian it was greater than 57 µM. Besides, the TGI in the test with NCI-H23 lung came to 18.5 µM.
For `N#Cc1c(Sc2ccccc2N)cccc1Sc1ccccc1N`, the GI50 is 21.3 µM with UACC-257 melanoma; 34.9 µM in the test with COLO 205 colon; 15.4 µM with NCI/ADR-RES ovarian; 37.8 µM in the test on 786-0 renal; 7.56 µM in the test with UO-31 renal; 16.4 µM in the test with HL-60(TB) leukemia. The GI50 in the test with OVCAR-4 ovarian is 42.1 µM; in the test with SF-295 CNS, 84 µM; with NCI-H23 lung it was 59 µM. Moreover, in the test on NCI/ADR-RES ovarian, the TGI turned out to be 38.4 µM.
